Source: patent publication US20240182446A1, “TYK2 INHIBITOR COMPOUND CONTAINING BICYCLIC RING” (CHIA TAI TIANQING PHARMACEUTICAL GROUP CO., LTD., priority 2021, published 2024)
Where two headings read alike, the source gives them in different places. Marks after values point to notes of the source that are not given here.

Legend:
[1] = tested on: STAT3 phosphorylation in Jurkat cells; assay: Detection of STAT3 phosphorylation using Jurkat cells stimulated with IFN-α; format: cell-based; details: Homo sapiens, IFN-α 25 ng/mL, 30 min, compound pre-incubation 1.5 h
Protocol: 20 μL of Jurkat cells growing at log phase were taken and counted, and the required number of cells (mL) were taken and centrifuged at 1300 rpm for 3 min. Phenol red-free 1640 base medium (Hyclone) was added to adjust the cell density to about 1.7*10E7 cells/mL. The cells were seeded according to the above cell density in a 384-well plate (small-volume white plate) at 8 μL per well. The compound was added with a nanoliter pipettor, and the plate was incubated for 1.5 h. IFN-α (Beijing Sino Biological) was diluted to 75 ng/mL (with a final concentration of 25 ng/mL) with phenol red-free 1640 base medium. Subsequently, 4 μL of IFN-α (3×) was added to each well according to the plate distribution. The blank group was seeded with cells, without compound and IFN-α. The control group was seeded with cells, without compound but with IFN-α. The plate was incubated at 37° C. for 30 min. 4 μL of lysis buffer (4×) containing blocking buffer was added immediately, and the cells were lysed by shaking at room temperature for 40 min. […] pre-mixed antibody (vol/vol) in assay buffer was added and the plate was covered. The mixture was mixed well by centrifugation and incubated overnight at room temperature. Signal values at 665 nm/620 nm were detected using a PE Envision multi-functional microplate reader, and IC50 was calculated by tour-parameter fitting.

[2] = tested on: mouse colitis model induced by anti-mouse CD40 antibody; assay: Pharmacodynamics in mouse colitis model induced by anti-CD40 mAb antibody; format: in vivo, CB17-SCID mice; details: Day 7, vs model control
Protocol: SPF-grade male CB17-SCID mice (6-8 weeks old) were divided into groups on the first day of the experiment. On the first day of the experiment, the mice in the blank group were intraperitoneally injected with PBS, while the mice in the model group were intraperitoneally injected with anti-mouse CD40 antibody (100 μg, diluted with PBS as a modeling agent solution), so as to establish a mouse colitis model. The injection volume for all groups of mice was 0.1 mL.
The day of grouping was determined as Day 1, and the intragastric administration was started on the grouping day, with a volume of 2 mL/kg administered twice daily for 6 consecutive days. The vehicle for intragastric administration was: DMSO:PEG400=5:95 (volume ratio).
Animal body weights were monitored daily during the experiment. On Day 7, the end point of the experiment, all mice were euthanized and tissue samples were collected. Mice were euthanized by cervical dislocation, abdomen of the mice were cut open, and mouse spleens were collected, weighed, and photographed. The colorectum was separated from the small intestine from the end of the cecum to the anus, and the whole colorectum was removed, photographed, and then dissected longitudinally along its longitudinal axis. The intestinal contents were cleansed with a pre-cooled saline solution. The rinsed colorectum was laid flat in a large flat dish with the mucosal side thereof facing upward. Residual saline solution was removed from the […] with filter paper, and colonic tissues were taken for weighing.
The inhibition rate (%) was calculated according to the following formula: inhibition rate (%)=(M−T)/(M−C)*100% (T: treatment group; C: blank control group; M: model control group).

[3] = In vitro stability in liver microsomes (human); format: in vitro ADME; details: compound 1 μM
Protocol: (§1) 300 μL of the final incubation system contained 30 μL of liver microsomes (protein concentration: 5 mg/mL). 30 μL of NADPH+MgCl2, 3 μL of the test compound (in acetonitrile), and 237 μL of PBS buffer (pH 7.4), wherein the proportion of the organic solvent (acetonitrile) was 1% (volume ratio). Samples were prepared in duplicate of 0.30 mL for each specie. Tubes each containing 270 μL of a mixed solution of substrate and enzyme and NADPH were pre-incubated at 37° C. for 5 min. 30 μL of NADPH+MgCl2 was added and the mixture was mixed. 50 μL of the mixture was taken at 0 min, 10 min, 30 min, and 60 min, and 300 μL of glacial acetonitrile containing an internal standard was added to terminate the reaction.
(§2) 300 μL of glacial acetonitrile containing an internal standard (20 ng/mL) was added to 50 μL of the incubated sample for precipitation. The mixture was vortexed for 10 min and centrifuged (13,000 rpm, 20° C.) for 10 min. 70 μL of supernatant was taken and diluted with 70 μL of ultrapure water. After being mixed well, 0.5 μL of the resulting sample was subjected to LC/MS/MS analysis.

[4] = In vitro stability in liver microsomes (mouse); format: in vitro ADME; details: compound 1 μM
Protocol: as §1, §2

[5] = In vivo pharmacokinetics in mice; details: ICR mice, plasma; for AUC(0-t): read-out: AUC(0-10 h); for MRT last: read-out: MRT(0-t)
Protocol: ICR mice (Shanghai Institute of Planned Parenthood Research) of 6-8 weeks old, weighing 20-24 g, were randomized into groups of 9 after 3-5 days of acclimatization, and the test compounds at a dose of 15 mg/kg or 30 mg/kg were administered intragastrically to the mice.
The animals to be tested (ICR mice) were fasted for 12 h before administration and food was provided 4 h after administration, and water was freely drunk before and after the experiment and during the experiment.
After intragastrric administration, about 0.1 mL of blood was collected from the orbit at 0.25 (15 min), 0.5 (30 min), 1, 2, 4, 6, 8, and 10 h. Each mouse was subjected to blood collection at 3-4 time points, with three mice per time point. The blood samples were mixed with EDTA-K2 anticoagulant, transferred to a centrifuge within 30 min, and then centrifuged at 4000 rpm for 10 min. at 4° C. to separate the plasma. All the plasma samples were collected and immediately stored at −20° C. for testing.
400 μL of acetonitrile solution containing an internal standard (20 ng/mL) was added to 20 μL of the collected plasma sample to be tested. The mixture was shaken and mixed well for 10 min, and centrifuged at 13,000 rpm for 10 min 50 μL of supernatant was taken and diluted with 100 μL of ultrapure water. After being mixed well, 0.5 μL of the resulting sample was subjected to LC/MS/MS, and a chromatogram was recorded.
Oral exposure of the compounds disclosed herein was evaluated by in vivo pharmacokinetic experiments in mice.

[6] = In vitro stability in liver microsomes (monkey); format: in vitro ADME; details: compound 1 μM
Protocol: as §1, §2

| IC50 [1] [nM] | Human Residuals at 60 min (%) [3] [%] | Mouse Residuals at 60 min (%) [4] [%] | SMILES | further results |
| --- | --- | --- | --- | --- |
| 5.2 | – | – | [2H]C([2H])([2H])NC(=O)c1nnc(NC(=O)C2CC2)cc1Nc1cccc(-c2ncc(N3CCC(C)(C)C3=O)cn2)c1OC [Compound 49-j] | – |
| 2.7 | – | – | [2H]C([2H])([2H])NC(=O)c1nnc(NC(=O)C2CC2)cc1Nc1cccc(-c2ncc(-c3cccnc3C)cn2)c1OC [Compound 52-j] | Spleen coefficient Inhibition rate (%) ([2]; 15 mg/kg i.g. bid for 6 days): 101%***; Spleen weight Inhibition rate (%) ([2]; 15 mg/kg i.g. bid for 6 days): 102%***; Weight of intestinal tissue per unit length Inhibition rate (%) ([2]; 15 mg/kg i.g. bid for 6 days): 101%*** |
| 4.4 | – | – | [2H]C([2H])([2H])NC(=O)c1cnc(NC(=O)C2CC2)cc1Nc1cccc(-c2ncc(-c3cccnc3F)cn2)c1OC [Compound 57-j] | – |
| 5.7 | 99.75 | 92.69 | [2H]C([2H])([2H])NC(=O)c1nnc(NC(=O)C2CC2)cc1Nc1cccc(-c2ncc(-c3ccnn3C)cn2)c1OC [Compound 34-h] | AUC(0-inf) ([5]; mouse, po, IG 15 mg/kg): 66700 ng·h/mL; Tmax ([5]; mouse, po, IG 15 mg/kg): 4 h; half-life ([5]; mouse, po, IG 15 mg/kg): 4.19 h; AUC(0-t) ([5]; mouse, po, IG 15 mg/kg): 65300 ng·h/mL; Cmax ([5]; mouse, po, IG 15 mg/kg, read-out: Cmax): 10200 ng/mL; MRT last ([5]; mouse, po, IG 15 mg/kg): 4.44 h; Spleen coefficient Inhibition rate (%) ([2]; 5 mg/kg i.g. bid for 6 days): 83%***; Spleen weight Inhibition rate (%) ([2]; 5 mg/kg i.g. bid for 6 days): 82%***; Weight of intestinal tissue per unit length Inhibition rate (%) ([2]; 5 mg/kg i.g. bid for 6 days): 70%*** |
| 5 | – | 100.66 | [2H]C([2H])([2H])NC(=O)c1nnc(NC(=O)C2CC2)cc1Nc1cccc(-c2ncc(N3CC[C@@H](O)C3)cn2)c1OC [Compound 59-j] | – |
| 2.4 | – | – | [2H]C([2H])([2H])NC(=O)c1nnc(NC(=O)C2CC2)cc1Nc1cccc(-c2ncc(N3CC(C)(C)CC3=O)cn2)c1OC [Compound 47-j] | – |
| – | 98.44 | 91.31 | [2H]C([2H])([2H])NC(=O)c1nnc(NC(=O)C2CC2)cc1Nc1cccc(-c2ncc(N3CC[C@@H](O)C3)cn2)c1OC [Compound 44-j] | – |
| 5.1 | – | 94.17 | [2H]C([2H])([2H])NC(=O)c1nnc(NC(=O)C2CC2)cc1Nc1cccc(-c2ncc(N3CC[C@H](O)C3)cn2)c1OC [Compound 53-j] | – |
| 7.1 | – | 96.42 | [2H]C([2H])([2H])NC(=O)c1nnc(NC(=O)C2CC2)cc1Nc1cccc(-c2ncc(N3CC(O)C3)cn2)c1OC [Compound 51-j] | – |
| 5.3 | 106.77 | 94.80 | [2H]C([2H])([2H])NC(=O)c1nnc(NC(=O)C2CC2)cc1Nc1cccc(-c2ncc(N3CCCC3=O)cn2)c1OC [Compound 18-h] | – |
| 5.3 | – | – | [2H]C([2H])([2H])NC(=O)c1nnc(NC(=O)C2CC2)cc1Nc1cccc(-c2ncc(-c3cccnc3C#N)cn2)c1OC [Compound 26-h] | – |
| 4.5 | – | – | [2H]C([2H])([2H])NC(=O)c1nnc(NC(=O)C2CC2)cc1Nc1cccc(-c2ncc(-c3cccnc3)cn2)c1OC [Compound 1-j] | – |
| 3.4 | – | 92.35 | [2H]C([2H])([2H])NC(=O)c1nnc(NC(=O)C2CC2)cc1Nc1cccc(-c2ncc(-c3cncnc3C)cn2)c1OC [Compound 54-j] | – |
| 8.5 | – | – | [2H]C([2H])([2H])NC(=O)c1cnc(NC(=O)C2CC2)cc1Nc1cccc(-c2ncc(N3CCCC3)cn2)c1OC [Compound 60-j] | – |
| 2.4 | 100.18 | – | [2H]C([2H])([2H])NC(=O)c1nnc(NC(=O)C2CC2)cc1Nc1cccc(-c2ncc(-c3cccnc3C(F)(F)F)cn2)c1OC [Compound 6-j] | Cmax ([5]; IG 30 mg/kg): 12534 ng/mL; t1/2 ([5]; IG 30 mg/kg): 6.26 h; AUC(0-inf) ([5]; mouse, po, IG 30 mg/kg): 63600 ng·h/mL; Tmax ([5]; mouse, po, IG 30 mg/kg): 0.5 h; AUC(0-t) ([5]; mouse, po, IG 30 mg/kg): 61200 ng·h/mL; MRT last ([5]; mouse, po, IG 30 mg/kg): 4.74 h; Spleen coefficient Inhibition rate (%) ([2]; 5 mg/kg i.g. bid for 6 days): 81.78%**; Spleen weight Inhibition rate (%) ([2]; 5 mg/kg i.g. bid for 6 days): 83.38%; Weight of intestinal tissue per unit length Inhibition rate (%) ([2]; 5 mg/kg i.g. bid for 6 days): 76.21%*** |
| 5.2 | – | – | [2H]C([2H])([2H])NC(=O)c1nnc(NC(=O)C2CC2)cc1Nc1cccc(-c2ncc(-n3ccnc3C)cn2)c1OC [Compound 55-j] | – |
| – | 103.99 | 99.92 | [2H]C([2H])([2H])NC(=O)c1nnc(NC(=O)C2CC2)cc1Nc1cccc(-c2ncc(-c3ccc(F)nc3)cn2)c1OC [Compound 3-j] | Monkey Residuals at 60 min (%) [6]: 95.82% |
| 2.9 | 107.15 | 99.08 | [2H]C([2H])([2H])NC(=O)c1nnc(NC(=O)C2CC2)cc1Nc1cccc(-c2ncc(-c3cccnc3F)cn2)c1OC [Compound 5-j] | Monkey Residuals at 60 min (%) [6]: 99.31%; AUC(0-inf) ([5]; mouse, po, IG 30 mg/kg): 62600 ng·h/mL; Tmax ([5]; mouse, po, IG 30 mg/kg): 0.5 h; half-life ([5]; mouse, po, IG 30 mg/kg): 4.48 h; AUC(0-t) ([5]; mouse, po, IG 30 mg/kg): 60800 ng·h/mL; Cmax ([5]; mouse, po, IG 30 mg/kg, read-out: Cmax): 8100 ng/mL; MRT last ([5]; mouse, po, IG 30 mg/kg): 6.26 h |
| 4.5 | – | – | [2H]C([2H])([2H])NC(=O)c1nnc(NC(=O)C2CC2)cc1Nc1cccc(-c2ncc(-c3ccc(F)nc3F)cn2)c1OC [Compound 12-j] | – |
